{
  "source": "patent US20130109620A1",
  "about": "“BALAGLITAZONE COMPOSITIONS AND METHODS” (RHEOSCIENCE A/S, priority 2009, published 2013)",
  "key": {"[1]": {"test_system": "T2D patients on stable insulin therapy", "assay": "26-week clinical study: lower leg volume by volume of water displacement (VWD)", "assay_type": "in vivo, human", "conditions": "26 weeks", "protocol": "(§1) All tablets were contained in an identical capsule. Subjects, study-site personnel, and sponsors were all blinded.\nLower leg volume of both legs was determined using the volume of water displacement (“VWD”) method at visits 2 and 8, using Partial Leg Baseline Volumetric Edema Gauges (26)."}, "[2]": {"test_system": "T2D patients on stable insulin therapy", "assay": "26-week clinical study: serum biochemistry (ALP, lipids, NT-proBNP)", "assay_type": "in vivo, human", "conditions": "26 weeks", "protocol": "All tablets were contained in an identical capsule. Subjects, study-site personnel, and sponsors were all blinded. One screening visit was conducted four weeks before randomization, and at week zero, subjects meeting the inclusion and exclusion criteria were assessed for safety. Subjects visited the clinics at the screening visit, at baseline, and at weeks 4, 8, 12, 16, 20 and 26. At each visit, fasting blood samples were collected for analysis of glycemic control, lipids, and clinical chemistry. All laboratory analyses were performed by a central laboratory."}, "[3]": {"test_system": "T2D patients on stable insulin therapy", "assay": "26-week clinical study: adverse events and tolerability", "conditions": "for subjects with AEs of special interest (strain on the heart or bone fractures): placebo 12%; for subjects who withdrew due to an AE: placebo 15%"}, "[4]": {"test_system": "T2D patients on stable insulin therapy", "assay": "26-week clinical study: body composition and total body BMD by DXA", "assay_type": "in vivo, human", "conditions": "26 weeks", "protocol": "All tablets were contained in an identical capsule. Subjects, study-site personnel, and sponsors were all blinded. Body composition was measured by Dual Energy X-ray Absorptiometry (“DXA”) on visits 2 and 8, in which total body lean (“LTM”), fat tissue mass (“FTM”), and bone mineral density (“BMD”) were measured. Subjects were instructed to fast, beginning at 10 PM the night before body composition measurements. […] The scans were conducted using Lunar DPX (GE Healthcare Worldwide), Hologic™ (Hologic™, Hologic (UK) Limited, UK), or Norland (Norland Medical Systems, Inc.) whole body scanners, and each individual was scanned with the same scanner at both visits."}, "[5]": {"conditions": "subjects on stable insulin therapy, 24-week period, reference (28), cited from earlier work"}, "[6]": {"test_system": "T2D patients on stable insulin therapy", "assay": "26-week clinical study: glycemic control (HbA1c, FSG, 7-point glucose, serum insulin, insulin dose)", "assay_type": "in vivo, human", "conditions": "for HbA1c level decrease compared to placebo / post-prandial glucose reduction (7-point glucose test) compared to placebo / fasting serum glucose (FSG) reduction compared to placebo: 26 weeks", "source_text": "Subjects were required to meet the following criteria to be included in the study: type 2 diabetes mellitus being diagnosed at least three months earlier according to the 1999 World Health Organisation criteria; age ≧18 years; body mass index (“BMI”)≧25 kg/m^2; HbA1c≧7%; and treatment with insulin on a stable dose of at least 30 U/day (±4 U/day), for at least 75 days, although insulin adjustments to resolve short term acute disease were permitted. […] All tablets were contained in an identical capsule. Subjects, study-site personnel, and sponsors were all blinded. One screening visit was conducted four weeks before randomization, and at week zero, subjects meeting the inclusion and exclusion criteria were assessed for safety. Subjects visited the clinics at the screening visit, at baseline, and at weeks 4, 8, 12, 16, 20 and 26. At each visit, fasting blood samples were collected for analysis of glycemic control, lipids, and clinical chemistry. All laboratory analyses were performed by a central laboratory. Subjects were instructed to keep their usual diet. They were supplied with a plasma glucose meter and instructed regarding how to obtain 7-point plasma glucose profiles. The values of the 7-point measurement performed within the last week before visits 2, 3, 4, 5, 6, 7 and 8 were included in the study. The 7-point plasma glucose profile consisted of glucose levels before each meal (breakfast, lunch, and dinner), 90 minutes after the start of each of those meals, and at bedtime."}, "[7]": {"assay": "26-week clinical study: body weight", "assay_type": "in vivo, human", "conditions": "26 weeks, p<0.0001", "source_text": "as §1"}, "[8]": {"test_system": "T2D patients on stable insulin therapy", "assay": "26-week clinical study: systolic and diastolic blood pressure", "assay_type": "in vivo, human", "conditions": "26 weeks, placebo −1.7", "source_text": "as §1\nAny abnormalities were registered."}, "[9]": {"conditions": "pioglitazone 45 mg once daily, p<0.0001"}, "[10]": {"conditions": "balaglitazone 10 mg once daily, p<0.01"}, "[11]": {"conditions": "balaglitazone 20 mg once daily, p<0.0001"}},
  "note": "Counter-ions that a name gives are not always drawn. Like-named read-outs stand apart in the source and are kept apart here.",
  "data": [
    {"smiles": "CCc1ccc(CCOc2ccc(CC3SC(=O)NC3=O)cc2)nc1", "note": "(racemic) [pioglitazone, [(±)-5-[[4-[2-(5-ethyl-2-pyridinyl)ethoxy]phenyl]methyl]-2,4-]thiazolidinedione monohydrochloride, reference compound]", "values": [
      {"measurement": "lower leg volume (VWD) compared with placebo", "setting": "[1]; pioglitazone 45 mg once daily", "result": "significantly increased lower leg volume"},
      {"measurement": "serum NT-proBNP compared to placebo", "setting": "[2]; pioglitazone 45 mg once daily", "result": "significant increase"},
      {"measurement": "influenza, total number of events", "setting": "[3]; pioglitazone 45 mg group", "result": 10},
      {"measurement": "number of heart failures", "setting": "[3]; pioglitazone 45 mg group", "result": 3},
      {"measurement": "subjects reporting adverse events", "setting": "[3]; pioglitazone 45 mg group, out of 102 subjects", "result": 75, "unit": "subjects"},
      {"measurement": "subjects reporting influenza", "setting": "[3]; pioglitazone 45 mg group, placebo 3%", "result": 9, "unit": "%"},
      {"measurement": "subjects reporting nasopharyngitis", "setting": "[3]; pioglitazone 45 mg group, placebo 10%", "result": 3, "unit": "%"},
      {"measurement": "subjects with AEs of special interest (strain on the heart or bone fractures)", "setting": "[3]; pioglitazone 45 mg group", "result": 25, "unit": "%"},
      {"measurement": "subjects who withdrew due to an AE", "setting": "[3]; pioglitazone 45 mg group", "result": 8, "unit": "%"},
      {"measurement": "total body bone mineral density (TB-BMD) compared with placebo", "setting": "[4]; pioglitazone 45 mg once daily, no significant change", "result": "trend toward loss of bone"},
      {"measurement": "weight increase", "setting": "[5]; pioglitazone 30 mg", "result": 2.9, "unit": "kg"},
      {"measurement": "weight increase", "setting": "[5]; pioglitazone 45 mg", "result": 3.4, "unit": "kg"},
      {"measurement": "HbA1c level decrease compared to placebo", "setting": "[6]; [9]", "result": "−1.22", "unit": "%"},
      {"measurement": "post-prandial glucose reduction (7-point glucose test) compared to placebo", "setting": "[6]; [9]", "result": -2.6, "unit": "mmol/L"},
      {"measurement": "fasting serum glucose (FSG) reduction compared to placebo", "setting": "[6]; pioglitazone 45 mg once daily, p<0.05", "result": -1.4, "unit": "mmol/L"},
      {"measurement": "body weight increase compared to placebo", "setting": "[7]; pioglitazone 45 mg once daily", "result": 4.5, "unit": "kg"},
      {"measurement": "systolic blood pressure reduction", "setting": "[8]; pioglitazone 45 mg once daily, SE 0.9", "result": "−3.0", "unit": "mmHg"},
      {"measurement": "diastolic blood pressure reduction", "setting": "[8]; pioglitazone 45 mg once daily, SE 1.5", "result": "−3.9", "unit": "mmHg"}
    ]},
    {"smiles": "Cn1c(COc2ccc(CC3SC(=O)NC3=O)cc2)nc2ccccc2c1=O", "note": "(stereo not shown) [balaglitazone, 5[4-(3-methyl-4-oxo-3,4-dihydroquinazolin-2-ylmethoxy)-benzyl]-thiazolidine-2,4-dione]", "values": [
      {"measurement": "lower leg volume (VWD) compared with placebo", "setting": "[1]; balaglitazone 10 mg once daily", "result": "no significant increase in leg volume"},
      {"measurement": "lower leg volume (VWD) compared with placebo", "setting": "[1]; balaglitazone 20 mg once daily", "result": "significantly increased lower leg volume"},
      {"measurement": "LDL cholesterol levels and total cholesterol", "setting": "[2]; balaglitazone 10 mg and 20 mg", "result": "neither LDL cholesterol levels nor total cholesterol changed"},
      {"measurement": "HDL cholesterol levels compared to placebo", "setting": "[2]; balaglitazone 10 mg and 20 mg, p<0.001 for both groups", "result": "significantly increased"},
      {"measurement": "reduction in serum ALP compared to the pioglitazone 45 mg group", "setting": "[2]; balaglitazone 10 mg once daily", "result": "significantly smaller"},
      {"measurement": "serum NT-proBNP compared to placebo", "setting": "[2]; balaglitazone 10 mg once daily", "result": "only a trend was observed"},
      {"measurement": "serum NT-proBNP compared to placebo", "setting": "[2]; balaglitazone 20 mg once daily", "result": "significant increase"},
      {"measurement": "increase in NT-proBNP compared to the pioglitazone 45 mg group", "setting": "[2]; balaglitazone 20 mg once daily, p<0.01", "result": "significantly larger"},
      {"measurement": "tolerability throughout the study", "setting": "[3]; balaglitazone 10 mg and 20 mg, 26 weeks", "result": "well-tolerated"},
      {"measurement": "heart failure, peripheral oedema and myocardial infarction compared to the remaining groups", "setting": "[3]; balaglitazone 10 mg group", "result": "numerically lower"},
      {"measurement": "number of heart failures", "setting": "[3]; balaglitazone 10 mg group", "result": 0},
      {"measurement": "percentage of serious adverse events", "setting": "[3]; balaglitazone 10 mg group", "result": 6, "unit": "%"},
      {"measurement": "subjects reporting adverse events", "setting": "[3]; balaglitazone 10 mg group, out of 99 subjects", "result": 81, "unit": "subjects"},
      {"measurement": "subjects with AEs of special interest (strain on the heart or bone fractures)", "setting": "[3]; balaglitazone 10 mg group", "result": 10, "unit": "%"},
      {"measurement": "subjects who withdrew due to an AE", "setting": "[3]; balaglitazone 10 mg group", "result": 16, "unit": "%"},
      {"measurement": "percentage of serious adverse events", "setting": "[3]; balaglitazone 20 mg group", "result": 11, "unit": "%"},
      {"measurement": "subjects reporting adverse events", "setting": "[3]; balaglitazone 20 mg group, out of 99 subjects", "result": 77, "unit": "subjects"},
      {"measurement": "subjects with AEs of special interest (strain on the heart or bone fractures)", "setting": "[3]; balaglitazone 20 mg group", "result": 19, "unit": "%"},
      {"measurement": "subjects who withdrew due to an AE", "setting": "[3]; balaglitazone 20 mg group", "result": 17, "unit": "%"},
      {"measurement": "number of fractures observed", "setting": "[3]; balaglitazone 20 mg group, the only fracture in the study", "result": "one"},
      {"measurement": "total body bone mineral density (TB-BMD) compared to placebo", "setting": "[4]; balaglitazone 10 mg and 20 mg groups", "result": "neither of the balaglitazone groups showed any indication of bone loss"},
      {"measurement": "whole body fat accumulation compared to pioglitazone 45 mg", "setting": "[4]; balaglitazone 10 mg once daily", "result": "trend toward lower fat accumulation"},
      {"measurement": "fat mass gain in the legs compared to the pioglitazone group", "setting": "[4]; [10]", "result": "significantly less fat mass"},
      {"measurement": "glucose-lowering capabilities compared to pioglitazone 45 mg", "setting": "[6]; balaglitazone 10 mg dose", "result": "equipotent"},
      {"measurement": "HbA1c level decrease compared to placebo", "setting": "[6]; balaglitazone 10 mg once daily, p<0.0001", "result": "−0.99", "unit": "%"},
      {"measurement": "post-prandial glucose reduction (7-point glucose test) compared to placebo", "setting": "[6]; [10]", "result": -1.6, "unit": "mmol/L"},
      {"measurement": "fasting serum glucose (FSG) reduction compared to placebo", "setting": "[6]; balaglitazone 10 mg once daily, p=0.01", "result": -1.4, "unit": "mmol/L"},
      {"measurement": "HbA1c level decrease compared to placebo", "setting": "[6]; [11]", "result": "−1.11", "unit": "%"},
      {"measurement": "post-prandial glucose reduction (7-point glucose test) compared to placebo", "setting": "[6]; [11]", "result": -2.5, "unit": "mmol/L"},
      {"measurement": "fasting serum glucose (FSG) reduction compared to placebo", "setting": "[6]; balaglitazone 20 mg once daily, p<0.001", "result": -1.8, "unit": "mmol/L"},
      {"measurement": "body weight increase compared to placebo", "setting": "[7]; balaglitazone 10 mg once daily", "result": 3.1, "unit": "kg"},
      {"measurement": "body weight increase compared to placebo", "setting": "[7]; balaglitazone 20 mg once daily", "result": 4.7, "unit": "kg"},
      {"measurement": "diastolic blood pressure reduction", "setting": "[8]; balaglitazone 10 mg once daily, SE 0.9", "result": "−1.8", "unit": "mmHg"},
      {"measurement": "diastolic blood pressure reduction", "setting": "[8]; balaglitazone 20 mg once daily, SE 1.0", "result": "−2.2", "unit": "mmHg"}
    ]}
  ]
}
